Test results from patent US12679832B2, “Compounds and their uses as CD38 inhibitors” (Nanjing Immunophage Biotech Co., Ltd., priority 2021, dated 2026).

Target: T1, hCD38 Enzyme (Homo sapiens, UniProt P28907)
T1 construct: purchased Sino Biological Inc 10818-H08H
T1 sequence (P28907 43-300 limits assumed): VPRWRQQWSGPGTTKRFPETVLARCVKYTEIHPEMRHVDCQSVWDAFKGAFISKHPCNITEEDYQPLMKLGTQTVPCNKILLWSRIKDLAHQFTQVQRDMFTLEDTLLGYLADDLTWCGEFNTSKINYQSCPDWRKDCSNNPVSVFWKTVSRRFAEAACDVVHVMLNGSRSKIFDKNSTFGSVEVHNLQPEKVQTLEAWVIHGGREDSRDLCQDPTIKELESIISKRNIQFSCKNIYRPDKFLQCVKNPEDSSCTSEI
Test: CD38 hydrolase enzymatic assay
Type: biochemical
Conditions: rhCD38, ε-NAD substrate, 25° C., point reading time 20 mins; read-out: hCD38 Enzyme inhibition IC50
Procedure: Also, a blank sample was prepared with 50 μl of sucrose buffer and no test compounds.
The dynamic reading was performed at 25° C. with excitation light of 300 nm and emission light of 410 nm on the enzyme marker by contacting the above-prepared rhCD38 enzyme working fluid and the above-prepared solutions of the test compounds disclosed herein or the solution of the control. The readings were recorded for a total of 1 hour, and the data were analyzed with the point reading time of 20 mins.
Fluorescence was recorded by a microplate reader. Individual excel files containing fluorescence data were exported and the results were plotted against various drug concentrations and analyzed in GraphPad Prism 7.0 for concentration curve generation.

Row | Structure (SMILES) | IC50 [nM]
1 | CC(NC(=O)c1cncc(-n2ccnc2)n1)C1CCCCC1 (stereo not shown) [compound 39, N-(1-cyclohexylethyl)-6-(1H-imidazol-1-yl)pyrazine-2-carboxamide] | 225
2 | CNc1cc(C(=O)N[C@H]2CC[C@H](OC)CC2)nc(-n2ccnc2)n1 [compound 24, 2-(1H-imidazol-1-yl)-N-((1r,4r)-4-methoxycyclohexyl)-6-(methylamino)pyrimidine-4-carboxamide] | 30
3 | CC(=O)N1CCC(NC(=O)c2cncc(-n3ccnc3)n2)CC1 [compound 40, N-(1-acetylpiperidin-4-yl)-6-(1H-imidazol-1-yl)pyrazine-2-carboxamide] | 96
4 | CO[C@H]1CC[C@H](NC(=O)c2cc(-c3ccncc3)nc(-n3ccnc3)n2)CC1 [compound 183, 2-(1H-imidazol-1-yl)-N-((1r,4r)-4-methoxycyclohexyl)-6-(pyridin-4-yl) pyrimidine-4-carboxamide] | 28
5 | O=C(NC1CCCCC1)c1ccnc(-n2ccnc2)n1 [compound 72, N-cyclohexyl-2-(1H-imidazol-1-yl)pyrimidine-4-carboxamide] | 16
6 | O=C(NC1CCNCC1)c1cncc(-n2ccnc2)n1 [compound 33, 6-(1H-imidazol-1-yl)-N-(piperidin-4-yl)pyrazine-2-carboxamide] | 4080
7 | CO[C@H]1CC[C@H](NC(=O)c2cc(Cl)cc(-n3ccnc3)n2)CC1 [compound 51, 4-chloro-6-(1H-imidazol-1-yl)-N-((1r,4r)-4-methoxycyclohexyl) picolinamide] | 9
8 | CC1(C)CCC(NC(=O)c2cc(C(F)(F)F)nc(-n3ccnc3)n2)CC1 [compound 138, N-(4,4-dimethylcyclohexyl)-2-(1H-imidazol-1-yl)-6-(trifluoromethyl) pyrimidine-4-carboxamide] | 76
9 | COC(C)(C)c1cc(F)cc(NC(=O)c2cc(C(F)(F)F)nc(-n3ccnc3)n2)c1 [compound 179, N-(3-fluoro-5-(2-methoxypropan-2-yl)phenyl)-2-(1H-imidazol-1-yl)-6-(trifluoromethyl) pyrimidine-4-carboxamide] | 586
10 | CO[C@H]1CC[C@H](NC(=O)c2ccnc(-n3cnc(C(F)(F)F)c3)n2)CC1 [compound 153, N-((1r,4r)-4-methoxycyclohexyl)-2-(4-(trifluoromethyl)-1H-imidazol-1-yl) pyrimidine-4-carboxamide] | > 10000
11 | CN(C)CCOc1cc(F)cc(NC(=O)c2cc(C(F)(F)F)nc(-n3ccnc3)n2)c1 [compound 181, N-(3-(2-(dimethylamino)ethoxy)-5-fluorophenyl)-2-(1H-imidazol-1-yl)-6-(trifluoromethyl) pyrimidine-4-carboxamide] | 25.4
12 | CO[C@H]1CC[C@H](NC(=O)c2ccnc(-n3ccnc3C(F)(F)F)n2)CC1 [compound 154, N-((1r,4r)-4-methoxycyclohexyl)-2-(2-(trifluoromethyl)-1H-imidazol-1-yl) pyrimidine-4-carboxamide] | > 10000
13 | CO[C@H]1CC[C@H](NC(=O)c2cc(-n3ccnc3)cc(C)n2)CC1 [compound 50, 4-(1H-imidazol-1-yl)-N-((1r,4r)-4-methoxycyclohexyl)-6-methylpicolinamide] | > 10000
14 | CNc1nc(C(=O)N[C@H]2CC[C@H](OC)CC2)cc(-n2ccnc2)n1 [compound 22, 6-(1H-imidazol-1-yl)-N-((1r,4r)-4-methoxycyclohexyl)-2-(methylamino)pyrimidine-4-carboxamide] | 2750
15 | O=C(NC1CCCCC1)c1cncc(-n2ccnc2)n1 [compound 30, N-cyclohexyl-6-(1H-imidazol-1-yl)pyrazine-2-carboxamide] | 42
16 | CO[C@H]1CC[C@H](NC(=O)c2cc(-n3ccnc3)cc(Cl)n2)CC1 [compound 2, 6-chloro-4-(1H-imidazol-1-yl)-N-((1r,4r)-4-methoxycyclohexyl)picolinamide] | 2710
17 | CO[C@H]1CC[C@H](NC(=O)c2cc(C)cc(-n3ccnc3)n2)CC1 [compound 52, 6-(1H-imidazol-1-yl)-N-((1r,4r)-4-methoxycyclohexyl)-4-methylpicolinamide] | 55
18 | O=C(NC1CCCCC1)c1cc(N2CCCCC2)nc(-n2ccnc2)n1 [compound 144, N-cyclohexyl-2-(1H-imidazol-1-yl)-6-(piperidin-1-yl)pyrimidine-4-carboxamide] | 46
19 | CO[C@H]1CC[C@H](NC(=O)c2cc(C)nc(-n3ccnc3)n2)CC1 [compound 99, 2-(1H-imidazol-1-yl)-N-((1r,4r)-4-methoxycyclohexyl)-6-methylpyrimidine-4-carboxamide] | 9
20 | CO[C@H]1CC[C@H](NC(=O)c2cc(O)cc(-n3ccnc3)n2)CC1 [compound 5, 4-hydroxy-6-(1H-imidazol-1-yl)-N-((1r,4r)-4-methoxycyclohexyl)picolinamide] | 895

Row | Structure (SMILES) | IC50 [nM]
21 | CO[C@H]1CC[C@H](NC(=O)c2ccc(Cl)c(-n3ccnc3)n2)CC1 [compound 77, 5-chloro-6-(1H-imidazol-1-yl)-N-((1r,4r)-4-methoxycyclohexyl) picolinamide] | 2450
22 | Nc1ncc(-n2ccnc2)nc1C(=O)NC1CCCCC1 [compound 42, 3-amino-N-cyclohexyl-6-(1H-imidazol-1-yl)pyrazine-2-carboxamide] | 11
23 | O=C(NC1CCOCC1)c1cncc(-n2ccnc2)n1 [compound 32, 6-(1H-imidazol-1-yl)-N-(tetrahydro-2H-pyran-4-yl)pyrazine-2-carboxamide] | 84
24 | Cc1cn(-c2cncc(C(=O)NC3CCCCC3)n2)cn1 [compound 78, N-cyclohexyl-6-(4-methyl-1H-imidazol-1-yl)pyrazine-2-carboxamide] | > 10000
25 | CO[C@H]1CC[C@H](NC(=O)c2ccc(C(F)(F)F)c(-n3ccnc3)n2)CC1 [compound 152, 6-(1H-imidazol-1-yl)-N-((1r,4r)-4-methoxycyclohexyl)-5-(trifluoromethyl) picolinamide] | > 10000
26 | COCCO[C@H]1CC[C@H](NC(=O)c2cc(C(F)(F)F)nc(-n3ccnc3)n2)CC1 [compound 157, 2-(1H-imidazol-1-yl)-N-((1r,4r)-4-(2-methoxyethoxy)cyclohexyl)-6-(trifluoromethyl) pyrimidine-4-carboxamide] | 49
27 | CO[C@H]1CC[C@H](NC(=O)c2cc(-c3cncs3)ccc2N)CC1 [compound 7, 2-amino-N-((1r,4r)-4-methoxycyclohexyl)-5-(thiazol-5-yl) benzamide] | > 10000
28 | CN(C(=O)c1cc(N2CCCCC2)nc(-n2ccnc2)n1)c1cccc(F)c1 [compound 117, N-(3-fluorophenyl)-2-(1H-imidazol-1-yl)-N-methyl-6-(piperidin-1-yl)pyrimidine-4-carboxamide] | > 10000
29 | N#Cc1ccc(NC(=O)c2cc(C(F)(F)F)nc(-n3ccnc3)n2)cc1 [compound 165, N-(4-cyanophenyl)-2-(1H-imidazol-1-yl)-6-(trifluoromethyl) pyrimidine-4-carboxamide] | 3
30 | N#Cc1ccc(NC(=O)c2cc(C(F)(F)F)nc(-n3ccnc3)n2)cn1 [compound 164, N-(6-cyanopyridin-3-yl)-2-(1H-imidazol-1-yl)-6-(trifluoromethyl) pyrimidine-4-carboxamide] | 4
31 | O=C(Nc1cccnc1)c1cc(C(F)(F)F)cc(-n2ccnc2)n1 [compound 191, 6-(1H-imidazol-1-yl)-N-(pyridin-3-yl)-4-(trifluoromethyl) picolinamide] | 3.8
32 | O=C(NCc1ccccc1)c1cncc(-n2ccnc2)n1 [compound 38, N-benzyl-6-(1H-imidazol-1-yl)pyrazine-2-carboxamide] | 456
33 | O=C(Nc1cccc(F)c1)c1ccnc(-c2ccn[nH]2)n1 [compound 116, N-(3-fluorophenyl)-2-(1H-pyrazol-5-yl)pyrimidine-4-carboxamide] | > 10000
34 | CO[C@H]1CC[C@H](NC(=O)c2cc(C(F)(F)F)nc(-n3ccnc3)n2)CC1 [compound 103, 2-(1H-imidazol-1-yl)-N-((1r,4r)-4-methoxycyclohexyl)-6-(trifluoromethyl) pyrimidine-4-carboxamide] | 28
35 | COc1cc(C(=O)N[C@H]2CC[C@H](OC)CC2)nc(-n2ccnc2)n1 [compound 105, 2-(1H-imidazol-1-yl)-6-methoxy-N-((1r,4r)-4-methoxycyclohexyl) pyrimidine-4-carboxamide] | 20
36 | CNc1ncc(-n2ccnc2)nc1C(=O)N[C@H]1CC[C@H](OC)CC1 [compound 47, 6-(1H-imidazol-1-yl)-N-((1r,4r)-4-methoxycyclohexyl)-3-(methylamino)pyrazine-2-carboxamide] | 38
37 | CO[C@H]1CC[C@H](NC(=O)c2cc(-n3nccn3)cc3cc[nH]c23)CC1 [compound 55, N-((1r,4r)-4-methoxycyclohexyl)-5-(2H-1,2,3-triazol-2-yl)-1H-indole-7-carboxamide] | > 10000
38 | O=C(NCC1CCCCC1)c1cncc(-n2ccnc2)n1 [compound 37, N-(cyclohexylmethyl)-6-(1H-imidazol-1-yl)pyrazine-2-carboxamide] | 348
39 | CO[C@H]1CC[C@H](NC(=O)c2cccc(-c3ccno3)n2)CC1 [compound 17, 6-(isoxazol-5-yl)-N-((1r,4r)-4-methoxycyclohexyl)picolinamide] | > 10000
40 | N#Cc1cc(C(=O)Nc2cncnc2)nc(-n2ccnc2)n1 [compound 189, 6-cyano-2-(1H-imidazol-1-yl)-N-(pyrimidin-5-yl)pyrimidine-4-carboxamide] | 12
